According to patent publication US11104690B2, “Indazole derivatives useful as inhibitors of diacylglyceride O-acyltransferase 2” (Merck Sharp & Dohme Corp., priority 2016, dated 2021):

Biological target: Human DGAT2 (Homo sapiens (Human), UniProt Q96PD7)
Assay: DGAT2 Enzymatic Activity Assay (triolein formation, LC/MS/MS)
Assay type: biochemical
Details: hDGAT2 Sf-9 membrane prep; 25 μM diolein, 10 μM oleoyl-CoA; room temperature
In short: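 Membranes from Sf-9 cells infected with untagged hDGAT2 baculovirus, 10 ng/μL, at room temperature in 100 mM Tris.Cl pH 7.0, 20 mM MgCl2, 5% ethanol with 25 μM diolein and 10 μM oleoyl-CoA. Triolein quantified by LC/MS/MS against spiked internal standard; IC50 from 4-parameter sigmoidal fit.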

Sequence of Human DGAT2 (Q96PD7 whole entry): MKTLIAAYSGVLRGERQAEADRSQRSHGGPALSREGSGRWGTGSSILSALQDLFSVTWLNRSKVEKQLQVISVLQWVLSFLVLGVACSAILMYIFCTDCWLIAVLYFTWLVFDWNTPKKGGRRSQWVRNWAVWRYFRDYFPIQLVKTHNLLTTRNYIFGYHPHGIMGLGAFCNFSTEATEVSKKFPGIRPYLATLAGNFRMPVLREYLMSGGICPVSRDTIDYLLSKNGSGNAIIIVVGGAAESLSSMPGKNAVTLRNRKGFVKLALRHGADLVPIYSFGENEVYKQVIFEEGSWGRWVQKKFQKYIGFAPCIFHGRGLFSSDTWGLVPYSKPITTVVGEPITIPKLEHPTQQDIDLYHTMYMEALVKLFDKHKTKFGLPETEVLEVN

SMILES | IC50
Cc1ccc(-n2nc(-c3ccccc3Cl)c3ccc(C(=O)NC4(C)CCS(=O)(=O)C4)cc32)nc1 (racemic) [Example 185, 3-(2-chlroophenyl)-N-(3-methyl-1,1-dioxidotetrahydrothiophen-3-yl)-1-(5-methylpyridin-2-yl)-1H-indazole-6-carboxamide] | 9.5 nM
COCCNC(=O)c1ccc2c(-c3ccccc3Cl)nn(-c3ccc(F)cc3)c2c1 [Example 45, 3-(2-chlorophenyl)-1-(4-fluorophenyl)-N-(2-methoxyethyl)-1H-indazole-6-carboxamide] | 424 nM
N#Cc1cccc(-c2nn(-c3ccc(F)cn3)c3cc(C(=O)N[C@H]4CCS(=O)(=O)C4)ccc23)c1 [177-B] | 86 nM
CC1(NC(=O)c2ccc3c(-c4ccccc4Cl)nn(-c4ccc(Cl)cn4)c3c2)CCS(=O)(=O)C1 (single isomer, unassigned) [Example 171-A, 3-(2-Chlorophenyl)-1-(5-chloropyridin-2-yl)-N-(3-methyl-1,1-dioxidotetrahydrothiophen-3-yl)-1H-indazole-6-carboxamide] | 15 nM
COc1ncc(Cl)cc1-c1nn(-c2ccc(F)cc2)c2cc(C(=O)NC3(C)CCS(=O)(=O)C3)ccc12 (single isomer, unassigned) [Example 142-A, 3-(5-chloro-2-methoxypyridin-3-yl)-1-(4-fluorophenyl)-N-(3-methyl-1,1-dioxidotetrahydrothiophen-3-yl)-1H-indazole-6-carboxamide] | 430 nM
O=C(NC1CCC(O)C1)c1ccc2c(-c3ccccc3Cl)nn(-c3ccc(F)cc3)c2c1 (racemic) [Example 83, 3-(2-chlorophenyl)-1-(4-fluorophenyl)-N-(3-hydroxycyclopentyl)-1H-indazole-6-carboxamide] | 276 nM
COC(=O)c1ccc(-n2nc(-c3ccccc3Cl)c3ccc(C(=O)NC4(C)CCS(=O)(=O)C4)cc32)cc1 (racemic) [Example 187, methyl 4-{3-(2-chlorophenyl)-6-[(3-methyl-1,1-dioxidotetrahydrothiophen-3-yl)carbamoyl]-1H-indazol-1-yl}benzoate] | 644 nM
O=C(NC1CCOC1)c1ccc2c(-c3ccccc3Cl)nn(-c3ccc(F)cc3)c2c1 (racemic) [Example 77, 3-(2-chlorophenyl)-1-(4-fluorophenyl)-N-(tetrahydrofuran-3-yl)-1H-indazole-6-carboxamide] | 59 nM
CC1(NC(=O)c2ccc3c(-c4ccccc4Cl)nn(-c4nnc(C(F)(F)F)s4)c3c2)CCS(=O)(=O)C1 (racemic) [Example 182, 3-(2-chlorophenyl)-N-(3-methyl-1,1-dioxidotetrahydrothiophen-3-yl)-1-[5-(trifluoromethyl)-1,3,4-thiadiazol-2-yl]-1H-indazole-6-carboxamide] | 371 nM
N#CC1(NC(=O)c2ccc3c(-c4ccccc4Cl)nn(-c4ccc(F)cc4)c3c2)CC1 [Example 105, 3-(2-chlorophenyl)-N-(1-cyanocyclopropyl)-1-(4-fluorophenyl)-1H-indazole-6-carboxamide] | 139 nM
N#Cc1ccc(Cl)c(-c2nn(-c3ccc(F)cc3)c3cc(C(=O)NC4CCS(=O)(=O)C4)ccc23)c1 (single isomer, unassigned) [Example 120-A, 3-(2-chloro-5-cyanophenyl)-N-(1,1-dioxidotetrahydrothiophen-3-yl)-1-(4-fluorophenyl)-1H-indazole-6-carboxamide] | 4.2 nM
COC(=O)C1(NC(=O)c2ccc3c(-c4ccccc4Cl)nn(-c4ccc(F)cc4)c3c2)CCCC1 [Example 63, methyl 1-({[3-(2-chlorophenyl)-1-(4-fluorophenyl)-1H-indazol-6-yl]carbonyl}amino)cyclopentane-carboxylate] | 405 nM
O=C(NC1CCOCC1)c1ccc2c(-c3ccccc3Cl)nn(-c3ccc(F)cc3)c2c1 [Example 86, 3-(2-chlorophenyl)-1-(4-fluorophenyl)-N-(tetrahydro-2H-pyran-4-yl)-1H-indazole-6-carboxamide] | 505 nM
O=C(NC1CCS(=O)(=O)C1)c1ccc2c(-c3ccc[n+]([O-])c3)nn(-c3ccc(F)cc3)c2c1 (single isomer, unassigned) [Example 166-A, 3-(6-((1,1-dioxidotetrahydrothiophen-3-yl)carbamoyl)-1-(4-fluorophenyl)-1H-indazol-3-yl)pyridine 1-oxide] | 843 nM
CC1(NC(=O)c2ccc3c(-c4cccc(Cl)c4)nn(-c4ccc(F)cc4)c3c2)CCS(=O)(=O)C1 (single isomer, unassigned) [Example 158-A, 3-(3-chlorophenyl)-1-(4-fluorophenyl)-N-(3-methyl-1,1-dioxidotetrahydrothiophen-3-yl)-1H-indazole-6-carboxamide] | 31 nM
O=C(N[C@H](CO)c1ccccc1)c1ccc2c(-c3ccccc3Cl)nn(-c3ccc(F)cc3)c2c1 [Example 82, 3-(2-chlorophenyl)-1-(4-fluorophenyl)-N-[(1S)-2-hydroxy-1-phenylethyl]-1H-indazole-6-carboxamide] | 36 nM

SMILES | IC50
COc1cccc(-n2nc(-c3ccccc3Cl)c3ccc(C(=O)NC4(C)CCS(=O)(=O)C4)cc32)n1 (racemic) [Example 186, 3-(2-chlorophenyl)-1-(6-methoxypyridin-2-yl)-N-(3-methyl-1,1-dioxidotetrahydrothiophen-3-yl)-1H-indazole-6-carboxamide] | 322 nM
N#Cc1ccc(Cl)c(-c2nn(-c3ccc(F)cn3)c3cc(C(=O)NC4CCS(=O)(=O)C4)ccc23)c1 (single isomer, unassigned) [Example 127-A, 3-(2-chloro-5-cyanophenyl)-N-(1,1-dioxidotetrahydrothiophen-3-yl)-1-(5-fluoropyridin-2-yl)-1H-indazole-6-carboxamide] | 8.2 nM
O=C(NC1CCCC1)c1ccc2c(-c3ccccc3Cl)nn(-c3ccc(F)cc3)c2c1 [Example 84, 3-(2-chlorophenyl)-N-cyclopentyl-1-(4-fluorophenyl)-1H-indazole-6-carboxamide] | 156 nM
CC1(NC(=O)c2ccc3c(-c4cc(C#N)ccc4F)nn(-c4ccc(F)cc4)c3c2)CCS(=O)(=O)C1 (single isomer, unassigned) [Example 151-A, 3-(5-cyano-2-fluorophenyl)-1-(4-fluorophenyl)-N-(3-methyl-1,1-dioxidotetrahydrothiophen-3-yl)-1H-indazole-6-carboxamide] | 4.5 nM
CC1(NC(=O)c2ccc3c(-c4cccc(C5CC5)c4)nn(-c4ccc(F)cn4)c3c2)CCS(=O)(=O)C1 (single isomer, unassigned) [Example 125-A, 3-(3-cyclopropylphenyl)-1-(5-fluoropyridin-2-yl)-N-(3-methyl-1,1-dioxidotetrahydrothiophen-3-yl)-1H-indazole-6-carboxamide] | 4.2 nM
CN1CCC(NC(=O)c2ccc3c(-c4ccccc4Cl)nn(-c4ccc(F)cc4)c3c2)C1=O (racemic) [Example 6, 3-(2-chlorophenyl)-1-(4-fluorophenyl)-N-(1-methyl-2-oxopyrrolidin-3-yl)-1H-indazole-6-carboxamide] | 686 nM
CN(C)S(=O)(=O)CCNC(=O)c1ccc2c(-c3ccccc3Cl)nn(-c3ccc(F)cc3)c2c1 [Example 25, 3-(2-chlorophenyl)-N-[2-(dimethylsulfamoyl)ethyl]-1-(4-fluorophenyl)-1H-indazole-6-carboxamide] | 558 nM
COc1cccc(-c2nn(-c3ccc(F)cc3)c3cc(C(=O)NC4(C)CCS(=O)(=O)C4)ccc23)c1 (single isomer, unassigned) [Example 144-A, 1-(4-fluorophenyl)-3-(3-methoxyphenyl)-N-(3-methyl-1,1-dioxidotetrahydrothiophen-3-yl)-1H-indazole-6-carboxamide] | 5.8 nM
O=C(NCc1cn2cccnc2n1)c1ccc2c(-c3ccccc3Cl)nn(-c3ccc(F)cc3)c2c1 [Example 35, 3-(2-chlorophenyl)-1-(4-fluorophenyl)-N-(imidazo[1,2-a]pyrimidin-2-ylmethyl)-1H-indazole-6-carboxamide] | 415 nM
CC(C)(C)OC(=O)CCNC(=O)c1ccc2c(-c3ccccc3Cl)nn(-c3ccc(F)cc3)c2c1 [Example 19, tert-butyl N-{[3-(2-chlorophenyl)-1-(4-fluorophenyl)-1H-indazol-6-yl]carbonyl}-beta-alaninate] | 585 nM
C[C@@H](NC(=O)c1ccc2c(-c3ccccc3Cl)nn(-c3ccc(F)cc3)c2c1)c1ccc(C(F)(F)F)[n+]([O-])c1 [Example 3, 3-(2-chlorophenyl)-1-(4-fluorophenyl)-N-{(1R)-1-[1-oxido-6-(trifluoromethyl)pyridin-3-yl]ethyl}-1H-indazole-6-carboxamide] | 155 nM
Cn1nnc2ccc(-c3nn(-c4ccc(F)cc4)c4cc(C(=O)NC5(C)CCS(=O)(=O)C5)ccc34)cc21 (racemic) [Example 163, 1-(4-fluorophenyl)-3-(1-methyl-1H-benzotriazol-6-yl)-N-(3-methyl-1,1-dioxidotetrahydrothiophen-3-yl)-1H-indazole-6-carboxamide] | 340 nM
O=C(NC1CCS(=O)(=O)C1)c1ccc2c(-c3cccc(Cl)c3Cl)nn(-c3ccc(F)cc3)c2c1 (single isomer, unassigned) [Example 130-A, 3-(2,3-dichlorophenyl)-N-(1,1-dioxidotetrahydro-thiophen-3-yl)-1-(4-fluorophenyl)-1H-indazole-6-carboxamide] | 3.6 nM
CC1(NC(=O)c2ccc3c(-c4ccccc4Cl)nn(-c4cccnc4)c3c2)CCS(=O)(=O)C1 (racemic) [Example 189, 3-(2-chlorophenyl)-N-(3-methyl-1,1-dioxidotetrahydrothiophen-3-yl)-1-pyridin-3-yl-1H-indazole-6-carboxamide] | 409 nM
O=C(NCc1cnoc1)c1ccc2c(-c3ccccc3Cl)nn(-c3ccc(F)cc3)c2c1 [Example 37, 3-(2-chlorophenyl)-1-(4-fluorophenyl)-N-(isoxazol-4-ylmethyl)-1H-indazole-6-carboxamide] | 221 nM
